Test results from PMC10339762, “Fragment-based drug discovery of small molecule ligands for the human chemokine CCL28” (SLAS discovery : advancing life sciences R & D, 2023).

Legend:
Assay type in all cases: binding
[1] = biological target: T1, CCL28(1-108) (Homo sapiens, UniProt Q9NRJ3); assay: 1H-15N HSQC NMR titration of repurchased fragment hits (hit validation); details: for Kd: 50 μM CCL28(1-108), fragment 0–6 mM, HSQC at 25 °C, estimated by nonlinear fitting, read-out: Kd (fitting of titration-derived chemical shift perturbation data)
T1 construct: Uniformly ^15N-labeled CCL28(1-108) and CCL28(4-108) proteins were expressed using a previously described SUMO fusion construct; Smt (SUMO) fusion tag (N, cleaved yes); made in house; host or cells: E. coli BL21(DE3)
T1 sequence (Q9NRJ3 20-127): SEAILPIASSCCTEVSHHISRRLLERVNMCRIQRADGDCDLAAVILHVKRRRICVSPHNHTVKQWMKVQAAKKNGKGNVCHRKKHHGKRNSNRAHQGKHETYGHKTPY
Method: NMR samples for fragment screening and titration experiments were prepared using a liquid handling robot designed for and dedicated to sample mixing and loading of NMR sample tubes as previously described, except that 1.7 mm sample tubes were used with sample volumes of 60 μL. All ^1H,^15N HSQC spectra were acquired at 25 °C and 600 MHz on a Bruker Avance III HD NMR spectrometer equipped with a 1.7 mm TCI CryoProbe and SampleJet sample handling robot. NMR data processing was performed in an automated manner, as previously described. Custom Python scripts were used to automate the movement of NMRPipe processing scripts to each experiment directory, run the NMRPipe processing scripts, transfer transformed spectra to a processed data directory, compute HSQC difference spectra, generate HSQC overlay and HSQC difference contour plot files for each sample, perform principal component analysis calculations and K-means cluster analysis on all spectra acquired in each round of fragment screening.
Fragment screening was conducted against 50 μM ^15N-CCL28(1-108) in an iterative multiplexed manner as previously described, except that each chemical fragment was present at a concentration of 500 μM instead of 1mM. A collection of 2,678 fragments comprised of the Core 1000 (Maybridge), Zenobia 1 (Zenobia), L5700 (Targetmol), and 3D Shape Diverse (Enamine) libraries were arranged into 12-plex groups for the first iteration. A consistent buffer was used across all NMR samples (50 mM dMES, 150 mM NaCl, 3% v/v DMSO, 0.02% w/v sodium azide, 5% v/v deuterium oxide) for 12-plex, 3-plex, and single compound screening rounds. Principal component analysis (PCA) and difference intensity analysis (DIA) comparisons of a reference (DMSO only) spectrum with each screening spectrum were used to identify potential hits, which were then verified by manual inspection of HSQC overlays and HSQC difference spectra, as previously described. Candidate hits were repurchased and subjected to ^1H-^15N HSQC titration with 50 μM CCL28(1-108) at concentrations ranging from 0–6 mM. Repurchased compound identities were confirmed via 1D ^1H NMR, and purity was determined to be at least 90% via natural abundance ^1H-^13C HSQC. For a subset of validated hits, CCL28 binding was measured in combination with a second fragment, each of which was titrated to a maximum concentration of 3 mM.
Because hits were identified in the primary screen from 2D NMR spectra acquired at a single fragment concentration, evaluating each candidate in terms of CCL28 binding affinity and specificity was essential. HSQC titrations up to a final concentration of 6 mM were performed using repurchased material for each candidate hit. Using the same chemical shift mapping approach employed for sTyr binding (Fig. 1B & C), titration-derived chemical shift perturbation data was used to ascertain and visualize the residues most affected by the addition of each compound. Fragment binding affinities were estimated by nonlinear fitting as previously described. […] While Kd value estimates ranged from ~1 mM to > 10 mM (Fig. 3), the other 13 fragments reproduced HSQC perturbations observed in the primary NMR screen, and PCA clustered them in two groups distinct from the non-hits. […] Four fragments mainly affected residues […], R21, E25, and the side chain of Q69 located in a cleft between the N-loop and α-helix. Another eight fragments largely perturbed residues in the sY binding cleft (Fig. 1C), including I53, which is analogous to V49 of CXCL12, a critical residue in facilitating binding interactions with sY21 of its receptor CXCR4 [18].

[2] = biological target: T2, CCL28(4-108) (Homo sapiens, UniProt Q9NRJ3); assay: Single-fragment 1H-15N HSQC titration, chemical shift mapping; details: 6 mM fragment, 50 μM CCL28(4-108)
T2 construct: Uniformly ^15N-labeled CCL28(1-108) and CCL28(4-108) proteins were expressed using a previously described SUMO fusion construct; Smt (SUMO) fusion tag (N, cleaved yes); made in house; host or cells: E. coli BL21(DE3)
T2 sequence (Q9NRJ3 23-127): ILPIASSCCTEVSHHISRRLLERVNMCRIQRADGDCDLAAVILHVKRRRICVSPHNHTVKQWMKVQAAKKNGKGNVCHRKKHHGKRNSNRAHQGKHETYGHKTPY

[3] = biological target: T2, CCL28(4-108); assay: Dual-fragment NMR titration; details: one fragment titrated 0–3 mM into 3 mM of the other, 50 μM CCL28

Row | Structure (SMILES) | Kd [1] | further results
1 | O=C(O)c1ccc(-c2cccs2)s1 [CC146001] | 3.2 mM | –
2 | O=C(O)c1cc2cc(F)ccc2[nH]1 [ZT0073] | > 10 mM | –
3 | O=c1cc(O)c2ccccc2o1 [ZT0262] | > 10 mM | –
4 | O=C(O)/C=C/c1ccccc1 [ZT0754] | > 10 mM | –
5 | O=C(O)c1cc2ccccc2[nH]1 [ZT1669] | > 10 mM | –
6 | O=C(O)c1cc2cc(C(F)(F)F)ccc2[nH]1 [TA01.A04.02A03] | > 10 mM | –
7 | Cc1csc(C(C#N)C(=O)c2ccccc2F)n1 (centres unmarked) [E2C02.03 C11.09C10] | > 10 mM | –
8 | Cc1cc(Cl)ccc1S(=O)(=O)Nc1ccon1 [E2C04.04 C11.12C09] | > 10 mM | –
9 | Sc1nc2cc(Cl)ccc2o1 [ZT0010] | 1.2 mM | –
10 | O=C(O)c1ccc(-c2ccccc2)s1 [CC10501] | 6.6 mM | Residues with largest / strong fragment-induced peak shifts [2]: I53, S20, and R21, CC10501 additionally yielded strong peak shifts for E25, Q69, and M66; Simultaneous binding of fragment pair [3]: can occupy adjoining subsites within the same cleft on the CCL28 surface
11 | OCCCCn1cnc2cc(Cl)c(Cl)cc21 [SPB07625] | 0.85 mM | Simultaneous binding of fragment pair [3]: can occupy adjoining subsites within the same cleft on the CCL28 surface
12 | O=C(O)c1ccc2c3c(cccc13)CC2 [ZT0784] | 2.3 mM | Binding site by chemical shift mapping ([1]; HSQC titration up to 6 mM, two potential sites (N-loop/α-helix cleft; sY binding cleft)): perturbed residues located in both sites
13 | Cc1cccc(C(=O)O)c1O [ZT0733] | > 10 mM | –
